Values of other authors, collected in patent publication US20070190209A1, “All natural multivitamin and multimineral dietary supplement formulations for enhanced absorption and biological utilization” (Mannatech, Inc., priority 2006, published 2007).
Read-outs that look alike come from different tables or passages of the source.

Key:
[1] = tested on: human cytosolic glutathione S-transferases (GSTs); details: van Haften, et al. (2002, 2003)
[2] = tested on: intestinal glucuronidation
[3] = tested on: thyroid gland of rats; details: Radovic, et al. (2005)
[4] = tested on: mammalian glutathione transferases; details: Kulkarni and Kulkarni (1995)
[5] = tested on: phase II detoxifying enzymes; details: glutathione transferases, NAD(P)H:quinone reductases, epoxide hydrolases; literature
[6] = tested on: osteoclasts; details: Rao, et al. (2003)
[7] = tested on: bone components; details: in vitro, combined with zinc; Uchiyama, et al. (2005)
[8] = by decreasing or eliminating intestinal glucuronidation, Mizuma and Awazu (2004)

Question: For tocopherols, which “activity of human cytosolic GSTs” value [1] is on record?
Answer: inhibited

Question: For `O=C(O[C@@H]1Cc2c(O)cc(O)cc2O[C@@H]1c1cc(O)c(O)c(O)c1)c1cc(O)c(O)c(O)c1` [epigallocatechin galleate (ECGC), epigallocatechin galleate], which “absorption of model drug alpha-napthol” value [2] is on record?
Answer: increase the absorption

Question: For tocotrieneols, which “activity of human cytosolic GSTs” value [1] is on record?
Answer: inhibited

Question: For `Oc1cc(O)c2c(c1)O[C@H](c1ccc(O)c(O)c1)[C@H](O)C2` [epicatechin], which “absorption of model drug alpha-napthol” value [2, 8] is on record?
Answer: increase the absorption

Question: Which “uptake of iodine into the thyroid gland” value [3] does the source give for `COc1cc(O)c(CC=C(C)C)c(O)c1C(=O)/C=C/c1ccc(O)cc1` [xanthohumol] here?
Answer: stimulates the uptake of iodine

Question: For vitamin A, which “inhibition of mammalian glutathione transferases” value [4] is on record?
Answer: inhibit mammalian glutathione transferases at low concentrations

Question: For `CSCCCCC(=NOS(=O)(=O)O)S[C@@H]1O[C@H](CO)[C@@H](O)[C@H](O)[C@H]1O` [glucoerucin], which “induction of phase II detoxifying enzymes” value [5] is on record?
Answer: potent inducers

Question: With `CC(C)=CCC/C(C)=C/C=C/C(C)=C/C=C/C(C)=C/C=C/C=C(C)/C=C/C=C(C)/C=C/C=C(\C)CCC=C(C)C` [lycopene] as the compound, how does the “formation of osteoclasts and osteoclastic mineral resorption” value [6] read?
Answer: prevented the formation of osteoclasts and osteoclastic mineral resorption

Question: Which “absorption of model drug alpha-napthol” value [2, 8] does the source give for `O=c1cc(-c2ccccc2)oc2cc(O)cc(O)c12` [chrysin] here?
Answer: increase the absorption

Question: For `Cc1c(C)c2c(c(C)c1O)CC[C@@](C)(CCC[C@H](C)CCC[C@H](C)CCCC(C)C)O2` [alpha-tocopherol], which “activity of human cytosolic GSTs” value [1] is on record?
Answer: inhibited

Question: With `CC1=C(/C=C/C(C)=C/C=C/C(C)=C/C=C/C=C(C)/C=C/C=C(C)/C=C/C2=C(C)C[C@@H](O)CC2(C)C)C(C)(C)CCC1` [beta-cryptoxanthin] as the compound, how does the “anabolic effects on bone components” value [7] read?
Answer: synergistic anabolic effects

Question: For `O=c1c(O)c(-c2ccc(O)c(O)c2)oc2cc(O)cc(O)c12` [quercetin], which “absorption of model drug alpha-napthol” value [2, 8] is on record?
Answer: increase the absorption

Question: Which “induction of phase II detoxifying enzymes” value [5] does the source give for `C[S+]([O-])CCCC/C(=N\OS(=O)(=O)O)S[C@@H]1O[C@H](CO)[C@@H](O)[C@H](O)[C@H]1O` (stereo partly shown) [glucoraphanin] here?
Answer: potent inducers
